Measured values as given in patent US10952952B2, “Skin lightening composition” (Conopco, Inc., priority 2015, dated 2021).

Legend:
Format in all cases: cell-based
[1] = test system: Human primary melanocytes; experiment: Melanin Content Assay (MCA); conditions: for inhibition at 5000 µM / inhibition at 10000 µM: Homo sapiens, Melanocyte, 72 hours, vs untreated cells, read-out: % Inhibition in Melanin Synthesis (Mean ± SD); for inhibition at 5000 µM: 5 mM; for inhibition at 10000 µM: 10 mM
Method: Human primary melanocytes were grown in melanocytes growth medium (MGM) with human melanocyte growth supplement. 500 μL/well (5×10^4 cells/well) of this solution was plated in a 24 wells plate and incubated in an incubator (Thermo Scientific, Model 3111) at 37° C. with 5% CO2 atmosphere. After 24 hours of incubation, cell cultures were treated with the lead actives dissolved in water. The control was cells treated with the vehicle (water) alone. The cells were again incubated for 72 hours in an incubator (Thermo Scientific, Model 3111; conditions: 5% CO2, at 37° C.). At the end of the incubation the culture medium was replaced with 120μl/well of MCA reagent ([…] DMSO in 1N NaOH) and incubated for 1 hour at 60° C. in a shaker incubator. The supernatant was then transferred to a 384 well plate. The absorbance was measured spectrophotometric at 405 nm with a micro plate reader (GEnios Pro, Tecan). The spectrophotometric OD at 405 nm for untreated cells (NO active) was considered as 100% melanin content. In comparison to the untreated cells, the percentage inhibition of the treated cell samples were calculated.

[2] = test system: human primary melanocytes and HaCat keratinocytes; experiment: Melanosome Transfer Assay (MTA), Example 3; conditions: 72 hours co-culture; for % Inhibition in melanosome transfer: 15 mM; for inhibition at 5000 µM / inhibition at 10000 µM: Homo sapiens, HaCaT; for inhibition at 5000 µM: 5 mM; for inhibition at 10000 µM: 10 mM
Method: 1.3×10^4 cells of human primary melanocytes (C-202-5C, Lonza) prepared in culture medium (MGM:KGM=1:1) and 2.6×10^4 HaCat keratinocytes prepared in culture medium (MGM:KGM=1:1) were mixed together and plated in a 48 well plate and incubated in an tissue culture tissue culture incubator (Thermo Scientific, Model 3111) at 37° C. with 5% CO2 atmosphere. After 4 hours of incubation, co-cultures were treated with the samples and again incubated for 72 hours in the same incubator under the same conditions. After culturing for required period (72 hours), the cells were prepared for flow cytometry analysis by following the procedure as set out below: • 1. Cells were isolated from 48 wells plate into a V-bottom plate (Torson, 941396) with 200 μl of trypsin EDTA buffer and the trypsin activity was neutralized with 200 μl of trypsin neutralizer and pelleted down to 350 g using a cold centrifuge (Plasto Crafts, Model no: Roat 4R-V/FM). • 2. To the pellet, 100 μl of 1% para-formaldehyde was added and incubated for 10 minutes on ice. • 3. Cells were then centrifuged (1000 G) with 100 μl of phosphate buffer saline (PBS) for 10 minutes and the pellet was used for staining with a solution as stated in below step 4. The PBS was prepared by adding 4 g sodium chloride, 0.1 g potassium chloride, 0.58 g disodium hydrogen phosphate and 0.1 g potassium dihydrogen phosphate into 500 ml of autoclaved Mili-Q water.
(§1) FACS buffer (Florescence activated cell sorter) was prepared by adding 0.1% Saponin and >0.05% (0.05% wt/volume) Fetal Bovine serum in PBS mixed with Alexa 488 conjugated goat anti-Trp1 antibody (TRP1 Alexa 488 (TRP1, tyrosinase related protein is an specific melanosome marker protein, Santacruz, catalog No: sc-10443) (1 μL/100 μL) and anti-pan cytokeratin antibody (pan cytokeratin, cytokeratin is a specific marker for keratinocytes) PE, Santacruz, catalog No: sc-8018) (1 μL/100 μL). The above mention FACS buffer was added to the pellet in each well (100 μL/well) and incubated for 60 minutes on ice. • 4. The cells were then washed with PBS and centrifuged down to ˜1000 G using a cold centrifuge (Plasto crafts, Roat 4R-V/FM) • 5. The cell pellets were suspended in PBS and transferred to round bottom 96 wells plate and analyzed by flow cytometry (BD Biosciences, Model—BD Facs calibur with BD HTS) Calculation of Melanosome Transfer (% Transfer):
Keratinocytes containing transferred melanosomes were detected by flow cytometry analysis.
The % transfer in untreated cells (NO active) was considered as 100%. In comparison to the untreated cells, the percentage transfer of the treated cell samples were calculated.

[3] = test system: human primary melanocytes and HaCat keratinocytes; experiment: Melanosome Transfer Assay (MTA), Example 2; conditions: 5 mM, 72 hours co-culture, read-out: % inhibition in keratinocytes containing melanosome (Mean ± SD)
Method: 1.3×10^4 cells of human primary melanocytes (C-202-5C, Lonza) prepared in culture medium (MGM:KGM=1:1) and 2.6×10^4 HaCat keratinocytes prepared in culture medium (MGM:KGM=1:1) were mixed together and plated in a 48 well plate and incubated in an tissue culture incubator (Thermo Scientific, Model 3111) at 37° C. with 5% CO2 atmosphere. After 4 hours of incubation, co-cultures were treated (added) with the samples and again incubated for 72 hours in the same incubator under the same conditions. After culturing for required period (72 hours), the cells were prepared for flow cytometry analysis by following the procedure as set out below: • 1. […]
as §1, with “FACS” for “FACS buffer”, “The above mention FACS buffer was added to the pellet in each well (100 μL/well) and incubated for 60 minutes on ice. • 4. The cells were then washed with PBS and centrifuged down to ˜1000 G using a cold centrifuge (Plasto crafts, Roat 4R-V/FM) • 5.” left out, “analysed” for “analyzed”, “Facscalibur” for “Facs calibur”, “Transfer): […]” for “Transfer):”

Row | SMILES | inhibition at 5000 µM [1] | inhibition at 10000 µM [1] | % Inhibition in melanosome transfer [2] | inhibition at 5000 µM [2] | inhibition at 10000 µM [2] | reduction of melanin content in primary human melanocytes ([1]; niacinamide by itself, at 5 mM and 10 mM) | inhibition at 5000 µM [3]
1 | NC(=O)c1ccccn1 [Picolinamide, pyridine 2-carboxamide] | 14 ± 0.9% | 23 ± 3.3% | cell death | -8% | 18% | – | –
2 | NC(=O)c1cccnc1 [Niacinamide, pyridine-3-carboxamide] | 3 ± 0.4% | 8 ± 2.3% | cell death | 16.5% | 25% | modest reduction | 15.1 ± 0.4%
